In patent publication US20210221784A1, “COMPOUNDS AND COMPOSITIONS FOR THE TREATMENT OF PAIN” (Université de Strasbourg, priority 2018, published 2021):
pIC50: −log10 of the molar value.

How the values were obtained:
[1] = target: T1, human NPFFR1 (hNPFFR1) receptor (Homo sapiens, UniProt Q9GZQ6); assay: Human NPFFR1 evaluation using BRET biosensors in HEK-293 T cells; format: cell-based; conditions: hNPFFR1 in HEK-293 T cells, stimulated by EC80 RFRP-3, read-out: IC50 of antagonist activity
T1 construct: expressed in transfected cells; host or cells: HEK-293 T cells, transient co-transfection
T1 sequence (Q9GZQ6 whole entry): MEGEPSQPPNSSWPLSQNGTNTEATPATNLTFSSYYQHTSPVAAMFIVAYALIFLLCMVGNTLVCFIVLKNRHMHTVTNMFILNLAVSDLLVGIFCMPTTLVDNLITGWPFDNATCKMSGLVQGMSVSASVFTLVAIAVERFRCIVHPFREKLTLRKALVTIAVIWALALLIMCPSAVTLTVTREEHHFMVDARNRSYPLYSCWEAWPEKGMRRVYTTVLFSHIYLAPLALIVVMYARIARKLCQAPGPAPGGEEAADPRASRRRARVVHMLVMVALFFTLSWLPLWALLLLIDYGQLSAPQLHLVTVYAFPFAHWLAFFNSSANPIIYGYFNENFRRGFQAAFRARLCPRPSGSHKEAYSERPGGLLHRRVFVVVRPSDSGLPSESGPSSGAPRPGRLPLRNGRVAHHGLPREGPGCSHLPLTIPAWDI
Protocol: Compounds of the present invention were tested successively for their agonist and antagonist activities on human NPFFR1 (hNPFFR1) receptor transiently over-expressed in HEK-293 T cells. Compounds exert agonist activity if, by themselves in absence of neuropeptide RFRP-3 (also named NPVF) they activate hNPFFR1; and they exert antagonist activity if they decrease the action of RFRP-3 on the receptor. The assay used to measure compound activity is based on BRET (Bioluminescence Resonance Energy Transfer) biosensors and is designed to monitor the plasma membrane translocation of protein that interacts with specific Ga subunit. The specific effector (luciferase tagged: BRET donor) recruited at the membrane will be in close proximity to a plasma membrane anchor (GFP tagged: BRET acceptor) to induce a BRET signal (Ramdan et al, 2006, Chapter 5, Current Protocols in Neuroscience).
HEK-293 T cells are maintained in Dulbecco's Modified Eagle's Medium supplemented with 10% Foetal Calf Serum, 1% Penicillin/Streptomycin at 37° C./5% CO2. Cells are co-transfected using polyethylenimine (25 kDa linear) with four DNA plasmids encoding; hNPFFR1, GαoB, a Gi family specific intracellular effector fused to luciferase (BRET donor), a plasma membrane effector fused to GFP (BRET acceptor). After transfection, cells are cultured for 48 h at 37° C./5% CO2.
Receptor activity is detected by changes in BRET signal.
On the day of the assay, cells are detached using trypsin 0.05%, resuspended in assay buffer (1.8 mM CaCl2, 1 mM MgCl2, 2.7 mM KCl, 137 mM NaCl, 0.4 mM NaH2PO4, 5.5 mM D-Glucose, 11.9 mM NaHCO3, 25 mM Hepes) and seeded in 384 well plate at a density of 20,000 cells per well. Then, plates are equilibrated 3.5 hours at 37° C. before adding compounds.
Compounds and luciferase substrate are added to the cells using an automated device (Freedom Evo®, Tecan) and BRET readings are collected on EnVision (PerkinElmer) with specific filters (410 nm BW 80 nm, 515 nm BW 30 nm).
Agonist and antagonist activities of compounds are consecutively evaluated on the same cell plate. Agonist activity is first measured after 10 minutes incubation with compound alone on the cells. Then, cells are stimulated by an EC80 RFRP-3 concentration and luminescence is recorded for additional 10 minutes. EC80 RFRP-3 concentration is the concentration giving 80% of the maximal RFRP-3 response. Agonist or antagonist activities are evaluated in comparison to basal signals evoked by assay buffer or EC80 RFRP-3 alone, respectively.
For IC50 determination, a dose-response test is performed using 20 concentrations (ranging over 6 logs) of each compound. Dose-response curves are fitted using the sigmoidal dose-response (variable slope) analysis in GraphPad Prism software (GraphPad Software) and IC50 of antagonist activity is calculated. Dose-response experiments are performed in duplicate, in two independent experiments.

pIC50 [1]	melting point	SMILES
< 6.00	174 to 176 °C	COc1ncccc1-c1ccc(N)nc1N [Compound 89, 3-(2-methoxy-3-pyridyl)pyridine-2,6-diamine]
6.30 to 7.00	59 to 63 °C	CC(C)Oc1cc(F)ccc1-c1ccc(N)nc1N [Compound 53, 3-(4-Fluoro-2-isopropoxy-phenyl)-pyridine-2,6-diamine]
> 7.00	60 to 80 °C	CCc1nc(N)ccc1-c1ccccc1OC1CC1.Cl [Compound 31, 5-[2-(cyclopropoxy)phenyl]-6-ethyl-pyridin-2-amine]
< 6.00	150 to 158 °C	COc1ccc(-c2ccc(N)nc2N)c(C)c1 [Compound 40, 3-(4-Methoxy-2-methyl-phenyl)-pyridine-2,6-diamine]
< 6.00	134 to 139 °C	Nc1ccc(-c2ccc(Cl)cc2F)c(N)n1 [Compound 41, 3-(4-Chloro-2-fluoro-phenyl)-pyridine-2,6-diamine]
< 6.00	178 to 181 °C	COc1ccccc1-c1c(C)cc(N)nc1C [Compound 27, 5-(2-Methoxy-phenyl)-4,6-dimethyl-pyridin-2-ylamine]
< 6.00	75 to 80 °C	Cc1ccc(-c2ccc(N)nc2N)c(OC(C)C)c1 [Compound 46, 3-(2-Isopropoxy-4-methyl-phenyl)-pyridine-2,6-diamine]
6.30 to 7.00	90 to 120 °C	CCc1nc(N)ccc1-c1cccc2ccccc12.Cl [Compound 67, 6-ethyl-5-(1-naphthyl)pyridin-2-amine]
6.30 to 7.00	180 to 190 °C	CCc1nc(N)ccc1-c1ccccc1C1CC1.Cl [Compound 30, 5-(2-cyclopropylphenyl)-6-ethyl-pyridin-2-amine]
< 6.00	100 to 103 °C	CC(C)Oc1ccc(C(F)(F)F)cc1-c1ccc(N)nc1N [Compound 52, 3-(2-Isopropoxy-5-trifluoromethyl-phenyl)-pyridine-2,6-diamine]
6.30 to 7.00	127 to 132 °C	Cc1ccc(-c2ccc(N)nc2N)c2ccccc12.Cl [Compound 71, 3-(4-methyl-1-naphthyl)pyridine-2,6-diamine]
< 6.00	186 to 192 °C	Cc1nc(F)ccc1-c1ccc(N)nc1N [Compound 85, 3-(6-fluoro-2-methyl-3-pyridyl)pyridine-2,6-diamine]
< 6.00	60 to 65 °C	Cc1cc(C(F)(F)F)ccc1-c1ccc(N)nc1N [Compound 57, 3-(2-Methyl-4-trifluoromethyl-phenyl)-pyridine-2,6-diamine]
< 6.00	80 to 85 °C	Cc1cc(Cl)ccc1-c1ccc(N)nc1N [Compound 54, 3-(4-Chloro-2-methyl-phenyl)-pyridine-2,6-diamine]
> 7.00	50 to 60 °C	Cl.Nc1ccc(-c2ccccc2OCc2ccccc2)c(N)n1 [Compound 64, 3-(2-benzyloxyphenyl)pyridine-2,6-diamine]
> 7.00	152 to 158 °C	Nc1ccc(-c2cccc3ccccc23)c(N)n1 [Compound 68, 3-(1-naphthyl)pyridine-2,6-diamine]
6.30 to 7.00	> 250 °C	Cl.N#Cc1ccccc1-c1ccc(N)nc1N [Compound 96, 2-(2,6-diamino-3-pyridyl)benzonitrile]
6.30 to 7.00	95 to 97 °C	Cc1ccc(Cl)cc1-c1ccc(N)nc1N [Compound 56, 3-(5-Chloro-2-methyl-phenyl)-pyridine-2,6-diamine]

pIC50 [1]	melting point	SMILES
< 6.00	170 to 178 °C	Nc1ccc(-c2ccc(F)nc2)c(N)n1 [Compound 86, 3-(6-fluoro-3-pyridyl)pyridine-2,6-diamine]
6.00 to 6.30	150 to 155 °C	Nc1ccc(-c2ccc(F)cc2Cl)c(N)n1 [Compound 45, 3-(2-Chloro-4-fluoro-phenyl)-pyridine-2,6-diamine]
6.30 to 7.00	109 to 114 °C	Cc1cccc(-c2ccc(N)nc2N)c1Cl [Compound 58, 3-(2-chloro-3-methyl-phenyl)-pyridine-2,6-diamine]
6.30 to 7.00	63 to 67 °C	COc1ccc2ccccc2c1-c1ccc(N)nc1N [Compound 69, 3-(2-methoxy-1-naphthyl)pyridine-2,6-diamine]
6.00 to 6.30	78 to 81 °C	Cc1ccc(OC(C)C)c(-c2ccc(N)nc2N)c1 [Compound 49, 3-(2-Isopropoxy-5-methyl-phenyl)-pyridine-2,6-diamine]
6.30 to 7.00	104 to 108 °C	Cc1cccc(C)c1-c1ccc(N)nc1N [Compound 51, 3-(2,6-Dimethyl-phenyl)-pyridine-2,6-diamine]
6.30 to 7.00	73 to 78 °C	CSc1ccccc1-c1ccc(N)nc1N.Cl [Compound 59, 3-(2-Methylsulfanyl-phenyl)-pyridine-2,6-diamine]
> 7.00	135 to 140 °C	Cl.Nc1ccc(-c2ccc(Cl)c3ccccc23)c(N)n1 [Compound 73, 3-(4-chloro-1-naphthyl)pyridine-2,6-diamine]
< 6.00	192 to 198 °C	Cc1ncccc1-c1ccc(N)nc1N [Compound 84, 3-(2-methyl-3-pyridyl)pyridine-2,6-diamine]
> 7.00	119 to 126 °C	Cl.Nc1ccc(-c2ccc(F)c3ccccc23)c(N)n1 [Compound 72, 3-(4-fluoro-1-naphthyl)pyridine-2,6-diamine]
6.00 to 6.30	160 to 166 °C	Cl.Nc1ccc(-c2ccc(O)c3ccccc23)c(N)n1 [Compound 74, 4-(2,6-diamino-3-pyridyl)naphthalen-1-ol]
6.00 to 6.30	93 to 97 °C	CC(C)Oc1ccc(F)cc1-c1ccc(N)nc1N [Compound 50, 3-(5-Fluoro-2-isopropoxy-phenyl)-pyridine-2,6-diamine]
< 6.00	132 to 140 °C	COc1ccccc1-c1ccc(N)nc1C [Compound 26, 5-(2-Methoxy-phenyl)-6-methyl-pyridin-2-ylamine]
> 7.00	63 to 68 °C	Cl.Nc1ccc(-c2ccccc2OCC2CC2)c(N)n1 [Compound 65, 3-[2-(cyclopropylmethoxy)phenyl]pyridine-2,6-diamine]
6.00 to 6.30	40 to 43 °C	CC(C)Oc1ccc2ccccc2c1-c1ccc(N)nc1N [Compound 70, 3-(2-isopropoxy-1-naphthyl)pyridine-2,6-diamine]
< 6.00	94 to 97 °C	Cc1cc(N)ncc1-c1cccc(Cl)c1Cl [Compound 22, 5-(2,3-Dichloro-phenyl)-4-methyl-pyridin-2-ylamine]
< 6.00	55 to 65 °C	CS(=O)(=O)c1ccccc1-c1ccc(N)nc1N.Cl [Compound 63, 3-(2-methylsulfonylphenyl)pyridine-2,6-diamine]

SMILES	pIC50 [1]	melting point
CCc1nc(N)ccc1-c1ccccc1OC1CCCC1.Cl [Compound 76, 5-[2-(cyclopentoxy)phenyl]-6-ethyl-pyridin-2-amine]	> 7.00	80 to 93 °C
